Marks after values point to notes of the source that are not given here.
Experiments:
[1] = type: physicochemical
Gram-positive bacteria = test: MIC against Gram-positive bacteria; type: cell-based; settings: most Gram (+)
Procedure: (§1) MIC determination assays. Staphylococcal aureus was grown to mid-log phase in LB at 37° C., and diluted by 500-fold with fresh LB and dispensed into 96-well micro-titer plates. Different concentrations of peptides were added, and the micro-titer plates were incubated at 37° C. with shaking. A minimal inhibition concentration (MIC) was determined as the lowest peptide concentration that produced a clear well. All experiments were performed in triplicates, and highly consistent MICs were obtained.
(§2) For Gram (−) the following were the antimicrobial activities observed: E. coli: MIC>20 microgram/ml; Pseudomonas and Salmonella: MIC>100 microgram/ml.

E. coli = test: MIC against E. coli; type: cell-based
Procedure: as §1, §2

Pseudomonas = test: MIC against Pseudomonas; type: cell-based
Procedure: as §1, §2

Salmonella = test: MIC against Salmonella; type: cell-based
Procedure: as §1, §2

S. cerevisiae = test: Antifungal MIC; type: cell-based
Tetrahymena = test: Anti-protozoal MIC; type: cell-based
Broiler Chicken [2] = test: Growth promoting Studies 1-1 and 1-2 (21-day battery study); type: in vivo
straight run broilers [3] = test: Growth promoting Studies 2-1 and 2-2, mash feed, batteries; type: in vivo, chicken
Procedure: Briefly, the peptide was used in a semi-purified form to study the growth and feed conversion of […] old straight run broilers in batteries (Studies 2-1 and 2-2). Two amounts were tested against a feed control, peptide at 6 ppm and peptide at 12 ppm, 12 repetitions were carried out per treatment with 4 birds per pen. The diet used in the study was as follows.

straight run broilers [4] = test: Growth promoting Studies 3-1 and 3-2, pelleted starter feed, batteries; type: in vivo, chicken
Description: Eight (8) study repetitions per treatment were used, again with 4 birds per pen.

Broiler Chicken [5] = test: Growth promoting Studies 4-1 and 4-2 with direct coccidial challenge; type: in vivo
[6] = Broiler floor pen trial, 42 days, natural colibacillosis challenge; type: in vivo, chicken
Procedure: A broiler floor pen trial to compare the performance of a new anti-microbial designated for this project as BT1583 alone and in combination with the widely used coccidiostat monensin (MON) to MON fed alone, MON in combination with the also widely used antimicrobial Bacitracin MD (BMD) and BMD alone.
The following levels of each treatment were evaluated:
The study design included 10 pens per treatment and 40 birds per pen housed on day of hatch. Two basal corn-soy based diets of decreasing protein (approximately 23 to 20%) and increasing metabolizable energy (approximately 1400 to 1455 kcal/lb) were used from Day 0 to 21 (starter feed) and Days 22 to 42 (grower feed), respectively. Treatment premixes were measured and blended into diets at required levels. Between days 0 and 21 mortality was less than 1% with all birds growing optimally and of high health across all groups.
Beginning on study day 22, the study director modulated house temperature and air flow to mimic industry conditions conducive to outbreaks of colibacillosis within naive broiler flocks. This was done to stimulate a natural challenge for this study. Mortality climbed to a house average of approximately 10% by Day 42. A majority of these deaths occurred in groups not receiving BT1583 or MON. Lesions were consistent with those of colibacillosis (air sac, pneumonia, peri-hepatitis, peri-carditis and extreme morbidity). All mortality was documented (weight at death and post-mortem observations). All birds and feeds were weighed at 42 days. All remaining birds were euthanized on Day 42 by asphyxiation with the carcasses submitted for rendering.
The following variables were tested: Response Variables: Gain Per Bird, Feed Per Gain, Mortality (%), Adjusted Feed Per Gain. F test from One Way ANOVA with one blocking factor=location, at Day 42 using 0.05 level of significance.
All Response Variables: LSD T-test procedure for pair-wise comparisons with Type 1 error of means when ANOVA F ratio is significant, overall significance level of 0.05 used. Lines below means (see Table 30, below) indicate groups with insignificant differences in means.
Adjusted Feed/Gain: The total weight of mortality in each pen was added to the final live weight, that value reduced by subtracting the initial weight and then dividing that value into the Total feed consumed to calculate the Adjusted Feed/Gain.

food-producing animals = test: Growth promotion in food-producing animals (overall statement); type: in vivo, chicken
Description: Furthermore, unlike conventional antibiotics, the present invention may target the bacterial membrane, and there is currently not a drug target that can be altered with one or two mutations to allow development of drug resistance. […] Alternatively, but in no way limiting the present invention, the present invention may be used as an animal-use only antibiotic for bacterial infections. Also, to date, there has been no observed decrease in the growth promoting activity of the peptide.

carboxypeptidase Y = biological target: T1, carboxypeptidase Y (Saccharomyces cerevisiae, UniProt P00729)
T1 sequence (P00729 112-532): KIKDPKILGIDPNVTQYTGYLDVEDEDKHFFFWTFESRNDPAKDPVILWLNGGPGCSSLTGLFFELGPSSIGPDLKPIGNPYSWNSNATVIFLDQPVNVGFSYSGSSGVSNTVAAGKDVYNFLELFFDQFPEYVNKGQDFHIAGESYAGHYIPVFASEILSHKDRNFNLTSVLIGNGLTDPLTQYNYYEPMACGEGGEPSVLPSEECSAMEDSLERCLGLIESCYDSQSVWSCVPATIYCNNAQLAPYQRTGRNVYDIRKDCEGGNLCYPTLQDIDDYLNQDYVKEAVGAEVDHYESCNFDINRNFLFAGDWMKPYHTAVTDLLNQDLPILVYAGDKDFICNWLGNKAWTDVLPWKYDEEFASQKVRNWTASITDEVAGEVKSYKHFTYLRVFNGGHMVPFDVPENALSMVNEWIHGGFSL

[7] = Study 3-2, 12 ppm with Coban (vs Coban alone)
[8] = Study 4-1, 24 ppm with direct coccidial challenge
[9] = Study 4-2, 48 ppm with direct coccidial challenge
[10] = MON 99 ppm, BT1583 12 ppm, BMD 55 ppm, alone or combined

Substance: Me2Bmt-L-dO-I-V-V-dK-V-dL-K-dY-L-Vol [BT1583]
- only known in vitro method to inactivate [1]: pH 1.0 plus 100 °C overnight
- MIC (Gram-positive bacteria): 1 microgram/ml
- MIC (E. coli): > 20 microgram/ml
- MIC (Pseudomonas): > 100 microgram/ml
- MIC (Salmonella): > 100 microgram/ml
- MIC (S. cerevisiae): 50 microgram/ml
- MIC (Tetrahymena): 25 microgram/ml
- Additional weight gain (%) (Broiler Chicken [2]; Study 1-1, 10 ppm): 17%
- Feed conversion improvement (point) (Broiler Chicken [2]; Study 1-1, 10 ppm): 7 point
- Additional weight gain (%) (Broiler Chicken [2]; Study 1-2, 30 ppm): 17%
- Feed conversion improvement (point) (Broiler Chicken [2]; Study 1-2, 30 ppm): 8 point
- Additional weight gain (%) (straight run broilers [3]; Study 2-1, 6 ppm): 6.7%
- Feed conversion improvement (point) (straight run broilers [3]; Study 2-1, 6 ppm): 9 point
- Additional weight gain (%) (straight run broilers [3]; Study 2-2, 12 ppm): 11%
- Feed conversion improvement (point) (straight run broilers [3]; Study 2-2, 12 ppm): 10 point
- 20-day cumulative weight gain, Mean (straight run broilers [3]; Table 9, 6 ppm in feed): 591.9750
- 20-day cumulative weight gain, Mean (straight run broilers [3]; Table 9, 12 ppm in feed): 618.9340
- 20-day cumulative weight gain, estimated marginal Mean (straight run broilers [3]; Table 11, 6 ppm in feed): 591.975
- 20-day cumulative weight gain, estimated marginal Mean (straight run broilers [3]; Table 11, 12 ppm in feed): 618.934
- 20-day cumulative weight gain, Duncan homogeneous subsets (straight run broilers [3]; Table 12, 6 ppm in feed): 591.9750
- 20-day cumulative weight gain, Duncan homogeneous subsets (straight run broilers [3]; Table 12, 12 ppm in feed): 618.9340
- 20-day cumulative feed conversion rate, Mean (straight run broilers [3]; Table 13, 6 ppm in feed): 1.5065
- 20-day cumulative feed conversion rate, Mean (straight run broilers [3]; Table 13, 12 ppm in feed): 1.4959
- 20-day cumulative feed conversion rate, estimated marginal Mean (straight run broilers [3]; Table 15, 6 ppm in feed): 1.506
- 20-day cumulative feed conversion rate, estimated marginal Mean (straight run broilers [3]; Table 15, 12 ppm in feed): 1.496
- 20-day cumulative feed conversion rate, Duncan homogeneous subsets (straight run broilers [3]; Table 16, 6 ppm in feed): 1.5065
- 20-day cumulative feed conversion rate, Duncan homogeneous subsets (straight run broilers [3]; Table 16, 12 ppm in feed): 1.4959
- Additional weight gain (%) (straight run broilers [4]; Study 3-1, 12 ppm): 16%
- Feed conversion improvement (point) (straight run broilers [4]; Study 3-1, 12 ppm): 9 point
- Additional weight gain (%) (straight run broilers [4]; [7]): 5.4%
- Feed conversion improvement (point) (straight run broilers [4]; [7]): 9 point
- 20-day cumulative weight gain, Mean (straight run broilers [4]; Table 18, BT1583 12 ppm, BMD 50 ppm, COB 90 ppm, alone or combined): 831.7396
- 21-day cumulative weight gain, estimated marginal Mean (straight run broilers [4]; Table 20, BT1583 12 ppm, BMD 50 ppm, COB 90 ppm, alone or combined): 831.740
- 21-day cumulative weight gain, Duncan homogeneous subsets (straight run broilers [4]; Table 21, BT1583 12 ppm, BMD 50 ppm, COB 90 ppm, alone or combined): 831.7396
- 20-day cumulative feed conversion rate, Mean (straight run broilers [4]; Table 22, BT1583 12 ppm, BMD 50 ppm, COB 90 ppm, alone or combined): 1.3308
- 21-day cumulative feed conversion rate, estimated marginal Mean (straight run broilers [4]; Table 24, BT1583 12 ppm, BMD 50 ppm, COB 90 ppm, alone or combined): 1.331
- 20-day cumulative feed conversion rate, Duncan homogeneous subsets (straight run broilers [4]; Table 25, BT1583 12 ppm, BMD 50 ppm, COB 90 ppm, alone or combined): 1.3308
- Additional weight gain (%) (Broiler Chicken [5]; [8]): 7.1%
- Feed conversion improvement (point) (Broiler Chicken [5]; [8]): 13 point
- Additional weight gain (%) (Broiler Chicken [5]; [9]): 9.3%
- Feed conversion improvement (point) (Broiler Chicken [5]; [9]): 17 point
- efficacy against colibacillosis ([6]; 3 to 4 week old naive broiler chickens, simulated commercial conditions): highly effective
- feed/gain advantage over monensin and BMD fed alone and in combination ([6]; Day 42): ≥ 10 point
- weight gain advantage over monensin and BMD fed alone and in combination ([6]; Day 42): ≥ 20 point
- Day 42 Feed/Gain [6, 10]: 1.722^ab
- Day 42 Gain/Bird [6, 10]: 4.333^ab lb
- Day 42 Mortality (%) ([6]; acute and chronic colibacillosis, MON 99 ppm, BT1583 12 ppm, BMD 55 ppm): 2.75^a %
- Day 42 Adjusted Feed/Gain ([6]; adjusted for mortality weight, MON 99 ppm, BT1583 12 ppm, BMD 55 ppm): 1.704^ab
- feed conversion improvement (food-producing animals): about 10 points
- cleavage by carboxypeptidase Y (carboxypeptidase Y): resistant

From US7498404B2, “Compositions, methods and uses for a novel family of peptides” (priority 2004, dated 2009)
